Assay results published in publication PMC6142817, “New Urea Derivatives Are Effective Anti-senescence Compounds Acting Most Likely via a Cytokinin-Independent Mechanism” (Frontiers in Plant Science, 2018).

Experiments:
[1] = tested on: young wheat plants under salt stress; test: Salt stress experiment; format: in vivo, Triticum a. cv. Hereward; conditions: 100 nM, 75 mM NaCl
Protocol: A plastic container was filled with 45 g of perlite and 200 mL of Hoagland's solution (control) or with the addition of ASES to a final concentration of 100 nM. Sterilized seeds of Triticum a. cv. Hereward (6 g) were sown on the surface. Both treatments were done in two repetitions. The plants were left to grow in optimal conditions (22°C, 16/8, light/dark, 130 μM m^−2 s^−1, humidity 60%) for 7 days. During this period, most of the water evaporated and the containers were adjusted to the same weight by the addition of fresh distilled water. After this, all the containers contained 50 g (mL) of water. Then 100 mM NaCl solution was added in the final volume of 150 mL. Final concentration of the salt was 75 mM. The plants were then left to grow, analyzed visually and photographed at certain time-points.

[2] = target: T1, Arabidopsis thaliana cytokinin oxidase/dehydrogenase 2 (AtCKX2) (Arabidopsis thaliana, UniProt Q9FUJ3); test: AtCKX2 inhibition assay (PMS/MTT); format: biochemical; conditions: PMS/MTT kinetic assay
T1 construct: made in house; host or cells: Saccharomyces cerevisiae strain 23344c ura-, plasmid pYES2-AtCKX2; cell-free growth medium used directly
T1 sequence (Q9FUJ3 23-501): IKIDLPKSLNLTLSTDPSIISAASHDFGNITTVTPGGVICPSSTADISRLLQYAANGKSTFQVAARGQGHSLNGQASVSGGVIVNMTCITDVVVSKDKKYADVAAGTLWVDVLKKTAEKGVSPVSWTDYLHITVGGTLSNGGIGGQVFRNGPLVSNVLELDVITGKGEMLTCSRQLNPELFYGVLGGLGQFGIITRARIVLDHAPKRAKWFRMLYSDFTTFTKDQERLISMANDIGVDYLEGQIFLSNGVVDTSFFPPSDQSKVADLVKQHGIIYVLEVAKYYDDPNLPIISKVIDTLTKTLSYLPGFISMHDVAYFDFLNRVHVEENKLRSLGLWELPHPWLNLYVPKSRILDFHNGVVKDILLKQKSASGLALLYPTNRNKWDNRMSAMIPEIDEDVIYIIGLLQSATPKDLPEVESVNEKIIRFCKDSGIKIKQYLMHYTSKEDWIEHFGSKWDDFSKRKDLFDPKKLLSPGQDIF
Protocol: The method based on the coupled redox reaction of phenazine methosulfate and 3-(4,5-dimethylthiazol-2-yl)-2,5-diphenyltetrazolium bromide resulting in the formation of a formazan dye was used to test the ability of the synthesized compounds to inhibit AtCKX2. The assay was performed as described previously (Frébort et al., [2002]). Cell-free growth medium of Saccharomyces cerevisiae strain 23344c ura- harboring the plasmid pYES2- AtCKX2 was used directly as a source of AtCKX2 (Frébortová et al., [2007]).

COCCNC(=O)Nc1cnns1 [ASES, 1-(2-methoxy-ethyl)-3-1,2,3-thiadiazol-5-yl-urea]
delay of senescence of the individual leaves compared to the untreated control [1]: 5 to 6 days
% of plants with dry and/or completely yellow at least one quarter of the first leaf ([1]; twenty days after planting, control 81%): 8%
inhibition of AtCKX2 [2]: neither ASES nor any of the other synthesized substances inhibited AtCKX2
